Measured values taken from PubChem BioAssay AID248 (DTP/NCI, 2004).
Several values for one entry are separate records, joined by “and”; a condition that tells them apart may be missing. Equal values may be shown once. Toxic doses and inconclusive results are not listed. Rule as the data show it: active = T/C of 150% or more; inactive = T/C below 125%.

Tested on: L1210 leukemia ip in BDF1 mice, survival T/C
Assay: NCI In Vivo Anticancer Drug Screen. Data for tumor model L1210 Leukemia (intraperitoneal) in B6D2F1 (BDF1) mice
Settings: endpoint: mean survival time, higher = longer survival
Method in brief: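 Tumor was transplanted into mice, which were then dosed with test compound or vehicle alone. Survival was recorded for each group, and the treated figure was expressed relative to the control figure.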

[1] = dose: 100.0 mg/kg/injection, schedule: Q04DX002 (ip), vehicle: saline with Tween-80
[2] = dose: 200.0 mg/kg/injection, schedule: Q04DX002 (ip), vehicle: saline with Tween-80
[3] = dose: 400.0 mg/kg/injection, schedule: Q04DX002 (ip), vehicle: saline with Tween-80
[4] = dose: 100.0 mg/kg/injection, schedule: Q01DX001 (ip), vehicle: carboxymethylcellulose (CMC)
[5] = dose: 200.0 mg/kg/injection, schedule: Q01DX001 (ip), vehicle: carboxymethylcellulose (CMC)
[6] = dose: 100.0 mg/kg/injection, schedule: Q01DX009 (ip), vehicle: saline
[7] = dose: 100.0 mg/kg/injection, schedule: Q04DX003 (ip), vehicle: saline
[8] = dose: 200.0 mg/kg/injection, schedule: Q04DX003 (ip), vehicle: saline
[9] = dose: 400.0 mg/kg/injection, schedule: Q04DX003 (ip), vehicle: saline
[10] = dose: 25.0 mg/kg/injection, schedule: Q04DX003 (ip), vehicle: saline
[11] = dose: 50.0 mg/kg/injection, schedule: Q04DX003 (ip), vehicle: saline
[12] = dose: 100.0 mg/kg/injection, schedule: Q01DX009 (ip), vehicle: Klucel (hydroxypropylcellulose) (HPC)
[13] = dose: 200.0 mg/kg/injection, schedule: Q01DX009 (ip), vehicle: Klucel (hydroxypropylcellulose) (HPC)
[14] = dose: 400.0 mg/kg/injection, schedule: Q01DX009 (ip), vehicle: Klucel (hydroxypropylcellulose) (HPC)
[15] = dose: 100.0 mg/kg/injection, schedule: Q01DX001 (ip), vehicle: saline
[16] = dose: 200.0 mg/kg/injection, schedule: Q01DX001 (ip), vehicle: saline
[17] = dose: 400.0 mg/kg/injection, schedule: Q01DX001 (ip), vehicle: saline

Measured: T/C

O=C(C=C(C(F)(F)F)C(F)(F)F)c1ccc([N+](=O)[O-])cc1
inactive: dose: 3.13 mg/kg/injection, schedule: Q01DX009 (ip), vehicle: other 105 % of control | dose: 3.13 mg/kg/injection, schedule: Q04DX003 (ip), vehicle: other 100 % of control | dose: 6.25 mg/kg/injection, schedule: Q01DX009 (ip), vehicle: other 110 % of control | dose: 6.25 mg/kg/injection, schedule: Q04DX003 (ip), vehicle: other 95 % of control | dose: 12.5 mg/kg/injection, schedule: Q04DX003 (ip), vehicle: other 100 % of control and 103 % of control | dose: 25.0 mg/kg/injection, schedule: Q04DX003 (ip), vehicle: other 96 % of control

Nc1ncnc2nc(-c3ccc(Cl)c(Cl)c3)[nH]c12
inactive: dose: 37.5 mg/kg/injection, schedule: Q01DX001 (ip), vehicle: saline with Tween-80 93 % of control | dose: 75.0 mg/kg/injection, schedule: Q01DX001 (ip), vehicle: saline with Tween-80 87 % of control | dose: 150.0 mg/kg/injection, schedule: Q01DX001 (ip), vehicle: saline with Tween-80 87 % of control

C/C=C/CC1(C(C)C)C(=O)NC(=S)NC1=O
inactive: dose: 75.0 mg/kg/injection, schedule: Q01DX001 (ip), vehicle: saline 93 % of control

CC(C)COC(c1ccc2c(c1)OCO2)C(C)Br (stereo not drawn)
inactive: [1] 96 % of control | [2] 101 % of control | [3] 107 % of control

COc1cc2c(cc1OC)C(Cc1ccc(OC(=O)O)cc1)=NCC2
inactive: [4] 102 % of control | [5] 102 % of control

Cc1noc(N)c1[N+](=O)[O-]
inactive: dose: 12.5 mg/kg/injection, schedule: Q01DX009 (ip), vehicle: saline 97 % of control | dose: 25.0 mg/kg/injection, schedule: Q01DX009 (ip), vehicle: saline 109 % of control | dose: 50.0 mg/kg/injection, schedule: Q01DX009 (ip), vehicle: saline 97 % of control | [6] 86 % of control | dose: 100.0 mg/kg/injection, schedule: Q04DX003 (ip), vehicle: other 92 % of control | dose: 200.0 mg/kg/injection, schedule: Q04DX003 (ip), vehicle: other 96 % of control | dose: 400.0 mg/kg/injection, schedule: Q04DX003 (ip), vehicle: other 92 % of control

CN1CCCC(=O)NC1=O
inactive: [6] 96 % of control | [7] 104 % of control | dose: 200.0 mg/kg/injection, schedule: Q01DX009 (ip), vehicle: saline 97 % of control | [8] 98 % of control | dose: 400.0 mg/kg/injection, schedule: Q01DX009 (ip), vehicle: saline 102 % of control | [9] 95 % of control

CCC1(O)CC2CN(CCc3c([nH]c4ccccc34)C(C(=O)OC)(c3cc4c(cc3OC)N(C)C3C(O)(C(=O)NCCSSCCNC(=O)C5(O)C(O)C6(CC)C=CCN7CCC8(c9cc(C%10(C(=O)OC)CC%11CN(CCc%12c%10[nH]c%10ccccc%12%10)CC(O)(CC)C%11)c(OC)cc9N(C)C58)C76)C(O)C5(CC)C=CCN6CCC43C65)C2)C1 (stereo not drawn)
active: dose: 1800.0 micrograms/kg/injection, schedule: Q04DX003 (ip), vehicle: saline 154 % of control
inactive: dose: 3000.0 micrograms/kg/injection, schedule: Q04DX003 (ip), vehicle: saline 119 % of control

CC[n+]1ccccc1CCC(=O)Nc1ccccc1
inactive: [10] 97 % of control | [11] 92 % of control | [7] 95 % of control

CC(=O)Nc1cc2c(cc1Br)-c1ccccc1C2O (stereo not drawn)
inactive: [4] 98 % of control | dose: 110.0 mg/kg/injection, schedule: Q01DX Z (ip), vehicle: other 98 % of control | dose: 166.0 mg/kg/injection, schedule: Q01DX Z (ip), vehicle: other 101 % of control | [5] 97 % of control | dose: 250.0 mg/kg/injection, schedule: Q01DX Z (ip), vehicle: other 98 % of control | dose: 296.0 mg/kg/injection, schedule: Q01DX Z (ip), vehicle: saline 103 % of control | dose: 444.0 mg/kg/injection, schedule: Q01DX Z (ip), vehicle: saline 105 % of control | dose: 560.0 mg/kg/injection, schedule: Q01DX Z (ip), vehicle: other 103 % of control | dose: 666.0 mg/kg/injection, schedule: Q01DX Z (ip), vehicle: saline 106 % of control

CN(C)c1ccc(C=O)c(F)c1
inactive: [12] 96 % of control | [13] 100 % of control | [14] 110 % of control

O=C1C(Br)=C(N2CC2)C(=O)C(Br)=C1N1CC1
inactive: dose: 1.56 mg/kg/injection, schedule: Q04DX003 (ip), vehicle: saline 104 % of control | dose: 3.12 mg/kg/injection, schedule: Q04DX003 (ip), vehicle: saline 109 % of control | dose: 6.25 mg/kg/injection, schedule: Q04DX003 (ip), vehicle: saline 104 % of control | dose: 12.5 mg/kg/injection, schedule: Q04DX003 (ip), vehicle: saline 106 % of control | [10] 104 % of control | [11] 103 % of control

CC(C)C(=O)OCC(=O)c1ccc(-c2ccccc2)cc1
inactive: [15] 100 % of control | [16] 94 % of control | [17] 111 % of control

COc1ccc(OC)c(C(=O)CC(O)(C(F)(F)F)C(F)(F)F)c1
inactive: dose: 100.0 mg/kg/injection, schedule: Q04DX003 (ip), vehicle: saline with Tween-80 94 % of control | dose: 200.0 mg/kg/injection, schedule: Q04DX003 (ip), vehicle: saline with Tween-80 90 % of control | dose: 400.0 mg/kg/injection, schedule: Q04DX003 (ip), vehicle: saline with Tween-80 99 % of control

CCOC(=O)NCCCCN(C(C)=O)n1cnc2c(SC)ncnc21
inactive: dose: 12.5 mg/kg/injection, schedule: Q04DX002 (ip), vehicle: saline with Tween-80 100 % of control | dose: 25.0 mg/kg/injection, schedule: Q04DX002 (ip), vehicle: saline with Tween-80 94 % of control | dose: 50.0 mg/kg/injection, schedule: Q04DX002 (ip), vehicle: saline with Tween-80 97 % of control

CCc1ccc(C(=O)c2ccccc2)c2c1C(=O)c1ccccc1C2=O
inactive: [1] 91 % of control | [2] 88 % of control | [3] 102 % of control

COc1ccc(-c2c(N)nc(=S)[nH]c2C(=O)O)cc1
inactive: [12] 97 % of control | dose: 100.0 mg/kg/injection, schedule: Q04DX003 (ip), vehicle: Klucel (hydroxypropylcellulose) (HPC) 100 % of control | [13] 94 % of control | dose: 200.0 mg/kg/injection, schedule: Q04DX003 (ip), vehicle: Klucel (hydroxypropylcellulose) (HPC) 101 % of control | [14] 103 % of control | dose: 400.0 mg/kg/injection, schedule: Q04DX003 (ip), vehicle: Klucel (hydroxypropylcellulose) (HPC) 106 % of control

CCOC(=O)/C(=C\c1ccccc1)C(=O)c1ccccc1
inactive: [15] 97 % of control | [7] 97 % of control | [16] 93 % of control | [8] 92 % of control | [17] 88 % of control | [9] 101 % of control

O=S(=O)(Cc1ccccc1)C(CCCc1ccccc1)S(=O)(=O)Cc1ccccc1
inactive: [4] 97 % of control | [5] 92 % of control | dose: 400.0 mg/kg/injection, schedule: Q01DX001 (ip), vehicle: carboxymethylcellulose (CMC) 91 % of control

Cc1ccc(S(=O)(=O)[O][Sn-]([CH2]c2ccccc2)([CH2]c2ccccc2)[CH2]c2ccccc2)cc1
inactive: dose: 50.0 mg/kg/injection, schedule: Q01DX009 (ip), vehicle: olive oil, sesame oil, peanut oil 97 % of control | dose: 100.0 mg/kg/injection, schedule: Q01DX009 (ip), vehicle: olive oil, sesame oil, peanut oil 92 % of control | dose: 100.0 mg/kg/injection, schedule: Q04DX002 (ip), vehicle: alcohol 97 % of control | dose: 200.0 mg/kg/injection, schedule: Q04DX002 (ip), vehicle: alcohol 90 % of control

O=C1c2cccc3cc([N+](=O)[O-])cc(c23)C(=O)N1CC1CCCO1 (stereo not drawn)
inactive: dose: 100.0 mg/kg/injection, schedule: Q04DX003 (ip), vehicle: carboxymethylcellulose (CMC) 94 % of control | dose: 200.0 mg/kg/injection, schedule: Q04DX003 (ip), vehicle: carboxymethylcellulose (CMC) 96 % of control | dose: 400.0 mg/kg/injection, schedule: Q04DX003 (ip), vehicle: carboxymethylcellulose (CMC) 107 % of control

CCCCCCC(CCC)CCCCCC
inactive: [1] 98 % of control | [2] 104 % of control | [3] 98 % of control
